Results: patent US20170224852A1, “BENZAZEPIN-1-OL-DERIVED PET LIGANDS WITH HIGH IN VIVO NMDA SPECIFICITY” (ETH ZURICH, priority 2016, published 2017)

Experiments:
NMDA-rich brain regions [1] = target: T1, NMDA-rich brain regions (Rattus norvegicus, UniProt P35439+Q00960); assay: PET scans of rat brain with [11C]WMS1405; assay type: in vivo, Wistar rats; conditions: for accumulation in rat brain (PET): i.v. tail vein, 0 to 60 min p.i., baseline
T1 construct: from tissue; host or cells: brain of living Wistar rats (in vivo PET)
T1 sequence (Q00960 27-1482, other chains not shown): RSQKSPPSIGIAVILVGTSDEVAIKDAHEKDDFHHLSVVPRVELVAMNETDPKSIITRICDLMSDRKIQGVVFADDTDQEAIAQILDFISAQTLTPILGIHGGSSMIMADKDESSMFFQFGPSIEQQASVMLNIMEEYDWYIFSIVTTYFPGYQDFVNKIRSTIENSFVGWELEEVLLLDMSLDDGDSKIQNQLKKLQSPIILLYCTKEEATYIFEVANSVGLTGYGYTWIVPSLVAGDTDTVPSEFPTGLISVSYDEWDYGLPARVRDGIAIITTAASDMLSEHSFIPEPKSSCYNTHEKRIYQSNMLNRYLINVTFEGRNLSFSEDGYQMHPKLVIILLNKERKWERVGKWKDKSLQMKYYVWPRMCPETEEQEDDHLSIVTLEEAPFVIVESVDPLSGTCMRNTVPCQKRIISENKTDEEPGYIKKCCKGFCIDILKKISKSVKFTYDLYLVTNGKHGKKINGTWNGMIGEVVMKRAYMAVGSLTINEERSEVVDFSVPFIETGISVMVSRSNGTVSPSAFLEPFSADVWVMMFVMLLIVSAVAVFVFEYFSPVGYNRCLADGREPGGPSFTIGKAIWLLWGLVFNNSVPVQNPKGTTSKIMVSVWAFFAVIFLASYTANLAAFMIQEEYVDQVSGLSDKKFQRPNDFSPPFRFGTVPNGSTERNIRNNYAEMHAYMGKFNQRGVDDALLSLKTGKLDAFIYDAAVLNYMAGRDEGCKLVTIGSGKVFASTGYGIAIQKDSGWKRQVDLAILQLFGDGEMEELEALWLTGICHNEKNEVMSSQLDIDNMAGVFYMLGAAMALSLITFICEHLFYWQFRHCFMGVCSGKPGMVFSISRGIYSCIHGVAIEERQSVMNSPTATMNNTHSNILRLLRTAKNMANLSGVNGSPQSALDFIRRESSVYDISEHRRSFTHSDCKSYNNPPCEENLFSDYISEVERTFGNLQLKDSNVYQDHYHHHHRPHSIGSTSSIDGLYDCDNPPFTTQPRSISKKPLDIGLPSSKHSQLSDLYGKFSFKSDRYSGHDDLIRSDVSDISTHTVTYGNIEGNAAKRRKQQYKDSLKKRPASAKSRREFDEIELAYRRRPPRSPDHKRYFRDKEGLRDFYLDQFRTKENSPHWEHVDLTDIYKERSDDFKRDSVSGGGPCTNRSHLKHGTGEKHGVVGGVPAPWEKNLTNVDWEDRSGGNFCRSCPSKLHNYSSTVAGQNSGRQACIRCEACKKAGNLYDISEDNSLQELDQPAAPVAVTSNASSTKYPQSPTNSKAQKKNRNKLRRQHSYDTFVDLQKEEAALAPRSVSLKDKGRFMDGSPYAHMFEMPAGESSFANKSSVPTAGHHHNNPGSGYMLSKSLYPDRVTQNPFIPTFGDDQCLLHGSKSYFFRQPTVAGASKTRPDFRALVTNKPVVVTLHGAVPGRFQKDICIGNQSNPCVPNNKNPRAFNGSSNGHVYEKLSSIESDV
Protocol: (§1) Wistar rats (331-353 g) were under isoflurane anaesthesia (2.5-5% in oxygen/air 1/1) for all procedures and temperature and respiration were controlled with warm air and by adjusting the isoflurane dosage. A dynamic PET scan was started with a calibrated VISTA eXplore/Super Argus PET/CT scanner (Sedecal, Madrid, Sprain; axial field of view 4.8 cm) and at time zero, 32-52 MBq (0.44-0.78 nmol/kg, 250-300 μL) [^11C]NB1 were injected via a tail vein.

GluN1/GluN2B NTD = target: T2, GluN1/GluN2B NTD (Rattus norvegicus, UniProt P35439+Q00960); assay: In vitro autoradiography of [11C]NB1 on rat brain slices; assay type: binding; conditions: for blocking of [11C]NB1 binding to rat brain slices: 10 μM competitor with 5.4 nM [11C]NB1
T2 construct: horizontal rat brain slices (20 μm) of a male Wistar rat; from tissue; host or cells: rat brain slices (male Wistar rat)
T2 sequence (Q00960 27-1482, other chains not shown): as above
Protocol: After incubation, the slices were washed with HEPES/BSA for 8 min and twice with HEPES buffer for 3 min followed by two 5-second rinses with water. The dried slices were exposed for 20 min to a phosphorimager plate, read in a phosphorimager BAS5000 (Fuji, Tokyo, Japan) and analyzed with the software AIDA v. 4.5 (Raytest Isotopenmessgerate GmbH, Germany).

signal receptor [2] = target: T3, signal receptor (Rattus norvegicus, UniProt Q9R0C9); assay: In vitro displacement of [3H](+)pentazocine from rat brain membranes; assay type: binding; set-up: from tissue; host or cells: rat brain membranes
T3 sequence (Q9R0C9 whole entry): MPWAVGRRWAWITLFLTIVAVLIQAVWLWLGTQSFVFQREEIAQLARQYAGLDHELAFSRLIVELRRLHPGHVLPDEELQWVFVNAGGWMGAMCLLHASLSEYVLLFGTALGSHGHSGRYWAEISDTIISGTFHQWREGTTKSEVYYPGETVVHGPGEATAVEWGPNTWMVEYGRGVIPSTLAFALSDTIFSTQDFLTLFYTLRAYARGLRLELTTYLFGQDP
Protocol: (§2) FIG. 4A. […] One out of three independent experiments. Triplicate incubations with standard deviations. Solid line, fit IC50 function. Upper broken line, binding of 2.9 nM [^3H](+)pentazocine alone. […] Baseline and blockade (circles) as in FIGS. 2B and 2C. Squares, co-injection of 2.5 mg/kg (+)-pentazocine.
In vitro binding study with [^3H](+)pentazocine, a ligand for signal receptor.

signal receptor [3] = conditions: read-out: Kd at signal receptor; Lever et al., Synapse 2006; cited from earlier work
NMDA-rich brain regions [4] = target: T1, NMDA-rich brain regions; assay: PET scans of rat brain with [18F]WMS1410; assay type: in vivo, Wister rat
Protocol: as §1
Similar PET experimental procedure as mentioned above for [^11C]WMS1405 was applied for imaging [^18F]WMS1410 with Wister rat.

[5] = system: GluN2B(C,D)-containing NMDA receptors; assay: PET receptor occupancy after eliprodil administration at various doses; assay type: in vivo, rat
[6] = Garrigou-Cadenne et al. 1995; cited from earlier work
signal receptor [7] = target: T3, signal receptor; conditions: co-injection; (+)-pentazocine 2.5 mg/kg, haloperidol 0.13 mg/kg
Protocol: as §2

[11CH3]Oc1ccc2c(c1)CCN(CCCCc1ccccc1)CC2O (single isomer, unassigned; stereoisomer b) [Stereoisomer B(+)]
accumulation in rat brain (PET) (NMDA-rich brain regions [1]): accumulates more than the racemate

C[C@H](NC(c1cccc2[nH]c(=O)c(=O)[nH]c12)P(=O)(O)O)c1ccc(Br)cc1 (stereo partly shown) [AAM077]
blocking of [11C]NB1 binding to rat brain slices (GluN1/GluN2B NTD): not

COc1ccc2c(c1)CCN(CCCCc1ccccc1)CC2O (stereo not shown) [WMS1405]
Ki (signal receptor [2]; 2.9 nM [3H](+)pentazocine, rat brain membranes): 1 to 10 µM
competition for the binding of (+)pentazocine to signal receptor (signal receptor [2]; in vitro): does not compete

CC(C)=CCN1CC[C@]2(C)c3cc(O)ccc3C[C@H]1[C@H]2C [[^3H](+)pentazocine]
Kd (signal receptor [3]): 0.0016 µM

[11CH3]Oc1ccc2c(c1)CCN(CCCCc1ccccc1)CC2O (stereo not shown) [[^11C]WMS1405]
binding to rat brain slices by in vitro autoradiography (GluN1/GluN2B NTD; 5.4 nM tracer, 30 min, room temperature, baseline): high binding in most brain regions
accumulation in rat brain (PET) (NMDA-rich brain regions [1]): accumulates in NMDA-rich brain regions

OC1CN(CCCCc2ccccc2)CCc2cc(OCC[18F])ccc21 (stereo not shown) [[^18F]WMS1410]
accumulation in rat brain (PET) (NMDA-rich brain regions [4]; baseline): accumulates in NMDA-rich brain regions

OC(CN1CCC(Cc2ccc(F)cc2)CC1)c1ccc(Cl)cc1 (stereo not shown) [eliprodil]
blocking of [11C]NB1 binding to rat brain slices (GluN1/GluN2B NTD): blocked
blockade and displacement of [11C]WMS1405 in rat brain (PET) (NMDA-rich brain regions [1]; eliprodil 1 mg/kg, displacement 20 min after tracer injection): blocked and displaced
blockade of [18F]WMS1410 in rat brain (PET) (NMDA-rich brain regions [4]; eliprodil 1 mg/kg co-injection): blocked
receptor occupancy ([5]; at 70 μg/kg): 99%
dose for 50% receptor occupancy ([5]; brain stem (GluN2B-poor but GluN2D-rich)): 7.7 nmol/kg
dose for 50% receptor occupancy ([5]; midbrain (GluN2B-poor but GluN2D-rich)): 6.2 nmol/kg
brain/plasma ratio [6]: about 20

CC(C)=CCN1CCC2(C)c3cc(O)ccc3CC1C2C (stereo not shown) [pentazocine]
reduction of [11C]WMS1405 binding in vivo (signal receptor [7]): reduced [^11C]WMS1405 binding to similar levels as under blocking conditions with eliprodil
